Results published in ChEMBL document CHEMBL1201862, “PubChem BioAssay data set” (2004).
Each block holds one compound with its values, some of them ahead of it. Calls of active or inactive are those of the source.

Legend:
Vero = Vero cell cytotoxicity, cytotoxicity control for flavivirus capping enzyme inhibitors (AID 588742); assay type: functional; conditions: Chlorocebus sabaeus
[1] = molecular target: Heat shock 70 kDa protein 1A (Homo sapiens, UniProt P0DMV8); test: Hsp70 inhibitors, SAR follow-up, biochemical, fluorescence polarization (AID 1072)
Sequence of Heat shock 70 kDa protein 1A (P0DMV8 whole entry): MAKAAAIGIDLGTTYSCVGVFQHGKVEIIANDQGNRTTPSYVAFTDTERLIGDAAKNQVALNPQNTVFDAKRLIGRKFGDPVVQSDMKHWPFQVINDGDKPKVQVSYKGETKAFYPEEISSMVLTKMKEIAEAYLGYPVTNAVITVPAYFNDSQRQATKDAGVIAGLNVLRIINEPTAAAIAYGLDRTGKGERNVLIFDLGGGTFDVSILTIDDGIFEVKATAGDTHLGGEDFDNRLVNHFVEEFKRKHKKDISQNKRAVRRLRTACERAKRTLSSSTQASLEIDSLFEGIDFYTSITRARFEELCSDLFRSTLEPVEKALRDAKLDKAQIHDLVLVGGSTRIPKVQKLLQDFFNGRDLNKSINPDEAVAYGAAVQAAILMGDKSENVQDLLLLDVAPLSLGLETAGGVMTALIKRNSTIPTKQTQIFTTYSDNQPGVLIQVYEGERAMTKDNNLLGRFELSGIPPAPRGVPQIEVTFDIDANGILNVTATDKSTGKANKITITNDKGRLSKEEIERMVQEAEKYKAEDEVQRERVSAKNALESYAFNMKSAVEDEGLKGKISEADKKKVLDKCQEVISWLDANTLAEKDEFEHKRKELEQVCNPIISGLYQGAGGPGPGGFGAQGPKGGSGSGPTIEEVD

ORF 73 = molecular target: T1, ORF 73 (Human herpesvirus 8, UniProt O40947); test: inhibitors of C-LANA binding to LBS DNA, dose response, biochemical, fluorescence polarization, cherry-picked samples (AID 504725); design: species or system Human gammaherpesvirus 8;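 note: fluorescence polarization of a labeled DNA duplex reporting LANA DNA binding; potency is for inhibitors that block LANA binding to the DNA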
T1 sequence (O40947 whole entry): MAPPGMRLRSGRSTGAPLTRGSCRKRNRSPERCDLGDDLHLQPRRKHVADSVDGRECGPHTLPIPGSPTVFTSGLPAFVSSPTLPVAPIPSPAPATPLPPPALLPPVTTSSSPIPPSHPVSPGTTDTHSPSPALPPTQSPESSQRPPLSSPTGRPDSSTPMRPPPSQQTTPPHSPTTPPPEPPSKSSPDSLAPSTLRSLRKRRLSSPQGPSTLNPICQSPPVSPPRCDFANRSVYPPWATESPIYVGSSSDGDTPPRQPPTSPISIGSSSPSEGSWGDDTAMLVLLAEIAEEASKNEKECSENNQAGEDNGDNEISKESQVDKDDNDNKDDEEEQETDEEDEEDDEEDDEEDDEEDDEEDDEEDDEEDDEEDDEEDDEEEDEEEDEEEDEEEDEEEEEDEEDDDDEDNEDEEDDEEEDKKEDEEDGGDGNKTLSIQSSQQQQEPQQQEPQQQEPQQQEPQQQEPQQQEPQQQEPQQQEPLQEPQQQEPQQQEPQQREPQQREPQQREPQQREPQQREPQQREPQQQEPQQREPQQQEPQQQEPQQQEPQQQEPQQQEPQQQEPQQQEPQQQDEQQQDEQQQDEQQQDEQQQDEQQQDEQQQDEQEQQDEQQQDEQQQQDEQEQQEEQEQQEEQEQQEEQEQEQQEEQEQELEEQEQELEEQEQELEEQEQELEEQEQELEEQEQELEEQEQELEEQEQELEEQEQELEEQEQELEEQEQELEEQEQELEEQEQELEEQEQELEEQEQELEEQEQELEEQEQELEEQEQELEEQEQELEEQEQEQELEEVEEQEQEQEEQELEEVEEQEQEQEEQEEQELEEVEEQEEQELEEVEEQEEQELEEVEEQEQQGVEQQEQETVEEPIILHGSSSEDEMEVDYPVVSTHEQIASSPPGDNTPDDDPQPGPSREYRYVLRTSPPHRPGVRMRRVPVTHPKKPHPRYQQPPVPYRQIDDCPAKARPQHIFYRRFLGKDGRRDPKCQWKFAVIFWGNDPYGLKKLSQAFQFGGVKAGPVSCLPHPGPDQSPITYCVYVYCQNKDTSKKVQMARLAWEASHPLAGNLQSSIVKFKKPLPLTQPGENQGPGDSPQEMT

[2] = molecular target: T2, RNA-binding protein pos-1 (Caenorhabditis elegans, UniProt G5EF15); test: inhibitors of POS-1/mex-3 RNA binding, dose response, biochemical, fluorescence polarization (AID 1964);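 note: purified POS-1 fused to maltose binding protein made in E. coli; potency of compounds blocking POS-1 binding to fluorescent RNA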
T2 sequence (G5EF15 whole entry): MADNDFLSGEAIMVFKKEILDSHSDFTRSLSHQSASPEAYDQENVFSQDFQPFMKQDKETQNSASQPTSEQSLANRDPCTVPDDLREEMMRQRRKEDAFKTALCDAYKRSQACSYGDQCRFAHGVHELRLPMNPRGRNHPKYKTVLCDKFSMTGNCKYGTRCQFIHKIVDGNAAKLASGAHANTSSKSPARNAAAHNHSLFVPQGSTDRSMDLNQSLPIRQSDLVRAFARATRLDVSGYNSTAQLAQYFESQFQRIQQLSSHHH

[3] = molecular target: Ribosomal protein S6 kinase alpha-3 (Homo sapiens, UniProt P51812); assay type: functional;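 note: measured within a kinome-wide profiling panel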
Sequence of Ribosomal protein S6 kinase alpha-3 (P51812 whole entry): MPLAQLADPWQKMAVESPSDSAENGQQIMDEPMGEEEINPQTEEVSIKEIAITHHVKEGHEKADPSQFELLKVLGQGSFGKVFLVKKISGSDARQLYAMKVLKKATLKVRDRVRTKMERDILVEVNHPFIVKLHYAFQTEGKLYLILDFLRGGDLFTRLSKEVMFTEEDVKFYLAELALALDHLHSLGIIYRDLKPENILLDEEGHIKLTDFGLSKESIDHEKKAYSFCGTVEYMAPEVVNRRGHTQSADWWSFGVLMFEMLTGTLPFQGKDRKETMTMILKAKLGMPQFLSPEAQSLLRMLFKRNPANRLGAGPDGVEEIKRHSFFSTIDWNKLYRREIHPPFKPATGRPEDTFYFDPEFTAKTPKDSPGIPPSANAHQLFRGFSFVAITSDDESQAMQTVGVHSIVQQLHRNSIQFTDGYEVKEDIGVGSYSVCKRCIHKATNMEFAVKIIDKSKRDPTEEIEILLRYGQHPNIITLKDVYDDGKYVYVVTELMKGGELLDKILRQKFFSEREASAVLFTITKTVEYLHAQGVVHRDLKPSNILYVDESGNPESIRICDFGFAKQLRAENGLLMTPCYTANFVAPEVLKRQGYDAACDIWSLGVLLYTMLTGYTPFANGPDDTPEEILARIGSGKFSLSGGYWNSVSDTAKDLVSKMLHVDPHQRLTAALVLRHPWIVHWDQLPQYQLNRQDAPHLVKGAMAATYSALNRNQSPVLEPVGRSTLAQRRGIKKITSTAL

[4] = molecular target: Serine/threonine-protein kinase PAK 4 (Homo sapiens, UniProt O96013); assay type: functional;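 note: value obtained within a kinome profiling panel in which PAK4 was one of the panel members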
Sequence of Serine/threonine-protein kinase PAK 4 (O96013 whole entry): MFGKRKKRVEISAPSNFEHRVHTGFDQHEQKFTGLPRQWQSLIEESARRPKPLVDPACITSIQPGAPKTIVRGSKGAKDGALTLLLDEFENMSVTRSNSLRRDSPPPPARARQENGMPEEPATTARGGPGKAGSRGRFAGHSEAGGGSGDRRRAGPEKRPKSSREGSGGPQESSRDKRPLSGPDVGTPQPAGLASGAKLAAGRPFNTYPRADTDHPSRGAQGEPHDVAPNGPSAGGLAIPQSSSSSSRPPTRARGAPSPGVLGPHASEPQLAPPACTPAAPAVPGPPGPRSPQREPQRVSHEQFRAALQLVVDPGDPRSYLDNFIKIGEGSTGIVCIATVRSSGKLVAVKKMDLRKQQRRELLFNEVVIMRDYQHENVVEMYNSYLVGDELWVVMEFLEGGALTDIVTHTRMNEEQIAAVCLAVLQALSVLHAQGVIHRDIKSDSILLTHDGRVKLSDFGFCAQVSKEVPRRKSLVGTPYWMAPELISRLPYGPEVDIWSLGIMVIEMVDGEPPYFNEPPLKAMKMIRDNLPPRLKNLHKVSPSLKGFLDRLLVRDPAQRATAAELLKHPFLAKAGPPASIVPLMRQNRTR

[5] = molecular target: Receptor-type tyrosine-protein kinase FLT3 (Homo sapiens, UniProt P36888); assay type: functional;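 note: FLT3 was tested as one member of a kinome-wide kinase panel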
Sequence of Receptor-type tyrosine-protein kinase FLT3 (P36888 whole entry): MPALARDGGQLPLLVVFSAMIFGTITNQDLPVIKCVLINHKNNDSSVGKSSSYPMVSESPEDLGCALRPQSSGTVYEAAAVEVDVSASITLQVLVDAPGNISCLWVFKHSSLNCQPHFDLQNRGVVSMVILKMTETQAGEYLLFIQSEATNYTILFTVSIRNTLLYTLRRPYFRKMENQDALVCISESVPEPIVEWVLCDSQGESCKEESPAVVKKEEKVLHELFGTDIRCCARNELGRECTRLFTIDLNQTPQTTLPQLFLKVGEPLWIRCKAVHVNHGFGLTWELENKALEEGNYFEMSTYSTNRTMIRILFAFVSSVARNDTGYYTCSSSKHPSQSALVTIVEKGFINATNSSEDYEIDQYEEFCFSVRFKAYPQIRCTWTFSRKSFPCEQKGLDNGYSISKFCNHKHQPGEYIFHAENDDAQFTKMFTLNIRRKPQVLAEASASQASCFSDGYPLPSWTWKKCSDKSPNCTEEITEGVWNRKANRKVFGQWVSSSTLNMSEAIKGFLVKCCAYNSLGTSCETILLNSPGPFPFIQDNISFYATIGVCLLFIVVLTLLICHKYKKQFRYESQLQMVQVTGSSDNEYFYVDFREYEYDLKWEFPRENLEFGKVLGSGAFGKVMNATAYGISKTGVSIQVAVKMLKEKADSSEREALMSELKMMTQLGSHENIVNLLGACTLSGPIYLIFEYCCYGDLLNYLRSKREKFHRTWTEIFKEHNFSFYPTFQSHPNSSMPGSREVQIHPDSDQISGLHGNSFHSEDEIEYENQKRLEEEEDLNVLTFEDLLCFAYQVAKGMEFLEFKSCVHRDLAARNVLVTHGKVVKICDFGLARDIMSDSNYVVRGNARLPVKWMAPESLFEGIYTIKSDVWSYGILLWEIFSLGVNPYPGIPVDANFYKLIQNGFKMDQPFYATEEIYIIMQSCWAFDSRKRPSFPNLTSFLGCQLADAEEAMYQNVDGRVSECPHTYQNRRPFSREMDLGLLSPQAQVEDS

[6] = molecular target: cAMP-dependent protein kinase catalytic subunit PRKX (Homo sapiens, UniProt P51817); assay type: functional
Sequence of cAMP-dependent protein kinase catalytic subunit PRKX (P51817 whole entry): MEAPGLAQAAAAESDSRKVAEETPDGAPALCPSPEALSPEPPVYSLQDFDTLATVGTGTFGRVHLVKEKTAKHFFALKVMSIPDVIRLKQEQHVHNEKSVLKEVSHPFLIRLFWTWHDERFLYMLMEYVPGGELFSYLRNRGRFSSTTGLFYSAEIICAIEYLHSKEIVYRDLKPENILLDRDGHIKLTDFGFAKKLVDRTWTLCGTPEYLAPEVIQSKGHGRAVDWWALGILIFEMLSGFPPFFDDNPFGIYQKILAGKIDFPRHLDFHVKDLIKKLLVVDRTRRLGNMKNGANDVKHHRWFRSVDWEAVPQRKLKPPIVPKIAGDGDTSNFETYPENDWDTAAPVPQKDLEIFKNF

[7] = molecular target: MAP kinase-activated protein kinase 2 (Homo sapiens, UniProt P49137); assay type: functional;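 note: measured as one member of a kinome-wide kinase panel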
Sequence of MAP kinase-activated protein kinase 2 (P49137 whole entry): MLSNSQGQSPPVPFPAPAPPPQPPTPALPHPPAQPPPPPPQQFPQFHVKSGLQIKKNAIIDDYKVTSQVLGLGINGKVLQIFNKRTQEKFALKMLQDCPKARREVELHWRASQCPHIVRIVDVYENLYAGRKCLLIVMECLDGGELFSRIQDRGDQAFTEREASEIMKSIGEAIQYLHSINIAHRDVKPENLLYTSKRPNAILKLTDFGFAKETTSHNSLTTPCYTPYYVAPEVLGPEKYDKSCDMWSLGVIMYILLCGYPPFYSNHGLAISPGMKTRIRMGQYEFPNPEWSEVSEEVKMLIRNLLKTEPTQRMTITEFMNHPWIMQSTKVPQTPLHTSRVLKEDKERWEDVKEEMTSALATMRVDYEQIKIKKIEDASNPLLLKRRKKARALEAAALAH

[8] = molecular target: Tyrosine-protein kinase Blk (Homo sapiens, UniProt P51451); assay type: functional;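 note: obtained as one member of a kinome-wide kinase assay panel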
Sequence of Tyrosine-protein kinase Blk (P51451 whole entry): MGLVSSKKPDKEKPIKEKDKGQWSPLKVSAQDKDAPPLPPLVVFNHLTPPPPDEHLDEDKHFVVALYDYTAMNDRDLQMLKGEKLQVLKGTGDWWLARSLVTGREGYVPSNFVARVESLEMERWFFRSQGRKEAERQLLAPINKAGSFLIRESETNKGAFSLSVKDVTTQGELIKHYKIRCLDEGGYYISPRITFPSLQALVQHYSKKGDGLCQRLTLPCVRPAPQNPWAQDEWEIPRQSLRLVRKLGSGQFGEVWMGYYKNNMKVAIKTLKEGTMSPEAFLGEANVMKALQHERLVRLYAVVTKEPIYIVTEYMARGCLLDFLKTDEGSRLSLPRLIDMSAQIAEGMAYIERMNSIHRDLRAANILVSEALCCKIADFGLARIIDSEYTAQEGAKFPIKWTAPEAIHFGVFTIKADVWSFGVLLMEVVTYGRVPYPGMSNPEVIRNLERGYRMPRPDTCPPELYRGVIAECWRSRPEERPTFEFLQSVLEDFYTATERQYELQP

[9] = molecular target: Casein kinase II subunit alpha (Homo sapiens, UniProt P68400); assay type: functional
Sequence of Casein kinase II subunit alpha (P68400 whole entry): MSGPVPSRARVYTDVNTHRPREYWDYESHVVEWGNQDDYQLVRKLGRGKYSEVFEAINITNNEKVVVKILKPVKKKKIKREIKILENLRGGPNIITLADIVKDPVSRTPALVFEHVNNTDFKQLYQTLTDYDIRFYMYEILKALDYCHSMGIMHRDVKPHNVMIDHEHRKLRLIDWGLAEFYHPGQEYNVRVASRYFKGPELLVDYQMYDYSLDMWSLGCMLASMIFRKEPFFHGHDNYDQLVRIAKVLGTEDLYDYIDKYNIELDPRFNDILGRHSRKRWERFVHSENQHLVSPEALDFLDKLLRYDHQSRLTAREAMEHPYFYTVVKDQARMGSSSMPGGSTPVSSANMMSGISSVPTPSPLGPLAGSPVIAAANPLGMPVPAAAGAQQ

Structure (SMILES): O=C1/C(=C\c2cccc(O)c2O)SC(=S)N1Cc1ccccc1
CC50 (Vero): 16.1 µM (active)

Structure (SMILES): COc1cccc2c1NC(C(=O)O)C1CC=CC21 (stereo unspecified)
IC50 [1]: 6.26 µM (active)
AC50 (ORF 73): 35.8 µM (active)
EC50 [2]: 19.5 µM (inconclusive)

Ki [3]: 0.794 µM (active)
Ki [4]: > 5.01 µM (inactive)
Ki [5]: 0.398 µM (active)
Ki [6]: > 3.16 µM (inactive)
Structure (SMILES): COc1c(-c2nc3ccccc3[nH]2)c(O)cc2oc(C)cc(=O)c12

Ki [7]: > 7.94 µM (inactive)
Ki [8]: 0.316 µM (active)
Ki [9]: 5.01 µM (active)
Structure (SMILES): Cc1ccc(F)c(NC(=O)Nc2ccc(-c3cccc4[nH]nc(N)c34)cc2)c1 [LINIFANIB]
